Consider 29 compounds from US20260078111A1, “CARBONIC ANHYDRASE ENZYME INHIBITORS AND METHODS OF USE THEREOF” (RUTGERS, THE STATE UNIVERSITY OF NEW JERSEY, priority 2022, published 2026).

The target of the first assay is recombinant human Car1 (Homo sapiens, UniProt P00915). As to the kind of experiment: Stopped-flow assay of Car1 enzyme inhibition (IC50). It is filed as biochemical.
Chain of recombinant human Car1 (P00915 whole entry): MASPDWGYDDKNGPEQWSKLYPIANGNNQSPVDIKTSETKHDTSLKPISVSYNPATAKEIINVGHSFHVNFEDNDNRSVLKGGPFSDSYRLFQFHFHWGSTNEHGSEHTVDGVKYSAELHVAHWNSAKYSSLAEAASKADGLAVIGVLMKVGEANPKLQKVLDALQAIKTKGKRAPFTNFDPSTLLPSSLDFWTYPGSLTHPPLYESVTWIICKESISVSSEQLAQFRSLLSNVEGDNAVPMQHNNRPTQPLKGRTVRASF
Conditions: not given
The method, then:
Stopped-flow: IC50 values were established using an SX20 stopped-flow spectrometer from […]. In one syringe of the SX20, recombinant human Car1 was kept at a concentration of 9 μM in a sodium phosphate buffer and inhibitors were added to this solution at 0 nM, 10 nM, 20 nM, 80 nM and 100 nM. In a second syringe, a saturated CO2 solution was mixed with 0.2 mM phenol red. This series of dilutions allow for the evaluation of how quickly Car1 can metabolize the CO2 in the absence of an inhibitor and for the determination of whether that process is inhibited as increasing concentrations of compounds are added.
The term IC50 denotes the midpoint of a concentration-inhibition curve. Regarding `COc1ccc2c(N3C(=O)C(O)(c4ccc(S(N)(=O)=O)cc4)c4ccccc43)cccc2c1` (stereo not shown) [NEM-15A, 4-[3-hydroxy-1-(6-methoxy-1-naphthyl)-2-oxo-indolin-3-yl]benzenesulfonamide], the IC50 came to 35.3 nM.
The same measure, in the same setting: the figure for `NS(=O)(=O)c1ccc(C2(O)C(=O)N(c3cccc4cc5c(cc34)OCO5)c3ccccc32)cc1` (stereo not shown) [NEM-37A, 4-(1-benzo[f][1,3]benzodioxol-5-yl-3-hydroxy-2-oxo-indolin-3-yl)benzenesulfonamide] is 5.3 nM; for `NS(=O)(=O)c1ccc(C2(O)C(=O)N(Cc3ccc(N4CCCC4)cc3)c3ccccc32)cc1` (stereo not shown) [NEM-24A, 4-[3-hydroxy-2-oxo-1-[(4-pyrrolidin-1-ylphenyl)methyl]indolin-3-yl]benzenesulfonamide] it is 44.3 nM.

The next assay relates to mast cell development from murine bone marrow cells. Put plainly: In vitro mast cell development culture assay (IL-3, flow cytometry). The following applies: 10 uM. It is filed as cell-based, mice. The procedure:
To further test the ability of 4-(3-hydroxy-1-(4-methoxybenzyl)-2-oxoindolin-3-yl)benzenesulfonamide to inhibit mast cell development, an established mast cell culture assay was employed (Henry, E. K., et al., J Exp Med, 2016. 213(9): p. 1663-73). As a positive control for mast cell development, bone marrow cells were isolated from the femur of mice and cultured in the presence of 10 ng/mL of IL-3 and vehicle (1:10, DMSO/RPMI complete media) for seven days and mast cells were identified by flow cytometric analysis as (c-Kit+ FceRIa+ CD49b− cells).
In vitro Mast Cell development: Briefly, 1×10^6 bone marrow-resident progenitor cells were isolated from the femur of mice and cultured in complete media supplemented with 10 ng/mL of rIL-3 for a period of […]. Mast cells were identified by their expression of the surface molecules FcεRIα and c-Kit via flow cytometric analysis. In addition to IL-3, cultures were treated with vehicle or increasing concentrations of Car enzyme inhibitors at the indicated concentrations.
In the case of `COc1ccc2c(N3C(=O)C(O)(c4ccc(S(N)(=O)=O)cc4)c4ccccc43)cccc2c1` (stereo not shown) [NEM-15A, 4-[3-hydroxy-1-(6-methoxy-1-naphthyl)-2-oxo-indolin-3-yl]benzenesulfonamide], the “inhibition of mast cell numbers (POI) compared to MZ at 126 uM” value is “significantly higher inhibition of mast cell numbers than MZ at 126 uM”.

The same assay, now with this note: 15 uM.
`COc1ccc2c(N3C(=O)C(O)(c4ccc(S(N)(=O)=O)cc4)c4ccccc43)cccc2c1` (stereo not shown) [NEM-15A, 4-[3-hydroxy-1-(6-methoxy-1-naphthyl)-2-oxo-indolin-3-yl]benzenesulfonamide]: the “inhibition of mast cell numbers (POI) compared to MZ at 126 uM” value is reported as “significantly higher inhibition of mast cell numbers than MZ at 126 uM”.

Still in this assay, the particulars now being: 10 μm; in vitro mast cell cultures.
Consider `NS(=O)(=O)c1ccc(C2(F)C(=O)N(Cc3ccc(F)cc3)c3ccccc32)cc1` (stereo not shown), for which the “Percent Inhibition at 10 μm” value was found to be 98%.
Still for that read-out and setting: the figure for `CCN1C(=O)C(O)(c2ccc(S(N)(=O)=O)cc2)c2ccccc21` (stereo not shown) is 99%; for `CN1C(=O)C(O)(c2ccc(S(N)(=O)=O)cc2)c2ccccc21` (stereo not shown) it is 84%.
Same read-out and setting: the figure for `CN1C(=O)C(F)(c2ccc(S(N)(=O)=O)cc2)c2ccccc21` (stereo not shown) is 100%; for `COc1ccc(CN2C(=O)C(F)(c3ccc(S(N)(=O)=O)cc3)c3ccccc32)cc1` (stereo not shown) it is 99%; for `NS(=O)(=O)c1ccc(C2(O)C(=O)N(Cc3ccc(F)cc3)c3ccccc32)cc1` (stereo not shown) it is 98%.
On the same count and under the same terms, then `CCN1C(=O)C(F)(c2ccc(S(N)(=O)=O)cc2)c2ccccc21` (stereo not shown), with 99%; and `NS(=O)(=O)c1ccc(C2(O)C(=O)Nc3ccccc32)cc1` (stereo not shown), with 94%; and `COc1ccc(CN2C(=O)C(O)(c3ccc(S(N)(=O)=O)cc3)c3ccccc32)cc1` (stereo not shown) [drawing 86], with 91%.

Still in this assay, the particulars now being: Mus musculus, Mast cell, read-out: POI (percent of inhibition based on MC numbers).
In general, inhibition refers to the change of the read-out against control, counted positive when it falls. As for `NS(=O)(=O)c1ccc(C2(O)C(=O)N(Cc3ccc(OC(F)F)cc3)c3ccccc32)cc1` (stereo not shown) [NEM-4A, 4-[1-[[4-(difluoromethoxy)phenyl]methyl]-3-hydroxy-2-oxo-indolin-3-yl]benzenesulfonamide], the inhibition at 15 µM was 82%.
The same measure, in the same setting: then `NS(=O)(=O)c1ccc(C2(O)C(=O)N(c3cccc4cnccc34)c3ccccc32)cc1` (stereo not shown) [NEM-38A, 4-[3-hydroxy-1-(5-isoquinolyl)-2-oxo-indolin-3-yl]benzenesulfonamide], with 63%; and `NS(=O)(=O)c1ccc(C2(O)C(=O)N(c3cccc4cc(F)ccc34)c3ccccc32)cc1` (stereo not shown) [NEM-34A, 4-[1-(6-fluoro-1-naphthyl)-3-hydroxy-2-oxo-indolin-3-yl]benzenesulfonamide], with 99%.
On the same count and under the same terms, the figure for `NS(=O)(=O)c1ccc(C2(O)C(=O)N(Cc3ccc4ncccc4c3)c3ccccc32)cc1` (stereo not shown) [NEM-26A, 4-[3-hydroxy-2-oxo-1-(6-quinolylmethyl)indolin-3-yl]benzenesulfonamide] is 82%; for `NS(=O)(=O)c1ccc(C2(O)C(=O)N(Cc3ccc(N4CCNCC4)cc3)c3ccccc32)cc1` (stereo not shown) [NEM-22A, 4-[3-hydroxy-2-oxo-1-[(4-piperazin-1-ylphenyl)methyl]indolin-3-yl]benzenesulfonamide] it is 53%; for `CC(C)(C)OC(=O)N1CCC(c2ccc(CN3C(=O)C(O)(c4ccc(S(N)(=O)=O)cc4)c4ccccc43)cc2)CC1` (stereo not shown) [NEM-30A, tert-butyl 4-[4-[[3-hydroxy-2-oxo-3-(4-sulfamoylphenyl)indolin-1-yl]methyl]phenyl]piperidine-1-carboxylate] it is 100%.
The same measure, in the same setting: then `COc1ccc(N2C(=O)C(O)(c3ccc(S(N)(=O)=O)cc3)c3ccccc32)cc1` (stereo not shown) [NEM-13A, 4-[3-hydroxy-1-(4-methoxyphenyl)-2-oxo-indolin-3-yl]benzenesulfonamide], with 87%; and `NS(=O)(=O)c1ccc(C2(O)C(=O)N(Cc3ccc(N4CCC(F)(F)CC4)cc3)c3ccccc32)cc1` (stereo not shown) [NEM-20A, 4-[1-[[4-(4,4-difluoro-1-piperidyl)phenyl]methyl]-3-hydroxy-2-oxo-indolin-3-yl]benzenesulfonamide], with 100%.
In the case of `NS(=O)(=O)c1ccc(C2(O)C(=O)N(c3cccc4cc(N5CCOCC5)ccc34)c3ccccc32)cc1` (stereo not shown) [NEM-36A, 4-[3-hydroxy-1-(6-morpholino-1-naphthyl)-2-oxo-indolin-3-yl]benzenesulfonamide], the inhibition at 15 µM amounted to 91%.
Same read-out and setting: then `NS(=O)(=O)c1ccc(C2(O)C(=O)N(Cc3ccc(N4CCCCC4)cc3)c3ccccc32)cc1` (stereo not shown) [NEM-19A, 4-[3-hydroxy-2-oxo-1-[[4-(1-piperidyl)phenyl]methyl]indolin-3-yl]benzenesulfonamide], with 99%; and `NS(=O)(=O)c1ccc(C2(O)C(=O)N(Cc3ccc(-n4ccnc4)cc3)c3ccccc32)cc1` (stereo not shown) [NEM-25A, 4-[3-hydroxy-1-[(4-imidazol-1-ylphenyl)methyl]-2-oxo-indolin-3-yl]benzenesulfonamide], with 87%.
On the same count and under the same terms, the figure for `NS(=O)(=O)c1ccc(C2(O)C(=O)N(Cc3ccc4c(c3)OCO4)c3ccccc32)cc1` (stereo not shown) [NEM-41A, 4-[1-(1,3-benzodioxol-5-ylmethyl)-3-hydroxy-2-oxo-indolin-3-yl]benzenesulfonamide] is 64%; for `CC(C)(C)OC(=O)N1CCN(c2ccc(CN3C(=O)C(O)(c4ccc(S(N)(=O)=O)cc4)c4ccccc43)cc2)CC1` (stereo not shown) [NEM-32A, tert-butyl 4-[4-[[3-hydroxy-2-oxo-3-(4-sulfamoylphenyl)indolin-1-yl]methyl]phenyl]piperazine-1-carboxylate] it is 100%.
The same measure, in the same setting: the figure for `NS(=O)(=O)c1ccc(C2(O)C(=O)N(Cc3ccc(-c4ccnc(C(F)(F)F)c4)cc3)c3ccccc32)cc1` (stereo not shown) [NEM-45A, 4-[3-hydroxy-2-oxo-1-[[4-[2-(trifluoromethyl)-4-pyridyl]phenyl]methyl]indolin-3-yl]benzenesulfonamide] is 100%; for `NS(=O)(=O)c1ccc(C2(O)C(=O)N(c3ccc(Br)cc3)c3ccccc32)cc1` (stereo not shown) [NEM-27A, 4-[1-(4-bromophenyl)-3-hydroxy-2-oxo-indolin-3-yl]benzenesulfonamide] it is 94%; for `NS(=O)(=O)c1ccc(C2(O)C(=O)N(c3cccc4cc(Cl)ccc34)c3ccccc32)cc1` (stereo not shown) [NEM-35A, 4-[1-(6-chloro-1-naphthyl)-3-hydroxy-2-oxo-indolin-3-yl]benzenesulfonamide] it is 99%.
As for `NS(=O)(=O)c1ccc(C2(O)C(=O)N(Cc3ccc(C4CCNCC4)cc3)c3ccccc32)cc1` (stereo not shown) [NEM-21A, 4-[3-hydroxy-2-oxo-1-[[4-(4-piperidyl)phenyl]methyl]indolin-3-yl]benzenesulfonamide], the inhibition at 15 µM was 81%.

Still in this assay, the particulars now being: Mus musculus, Mast cell; Table 3; at 15 uM; read-out: POI (percent of inhibition based on MC numbers).
Take `COc1ccc2c(N3C(=O)C(O)(c4ccc(S(N)(=O)=O)cc4)c4ccccc43)cccc2c1` (stereo not shown) [NEM-15A, 4-[3-hydroxy-1-(6-methoxy-1-naphthyl)-2-oxo-indolin-3-yl]benzenesulfonamide]: the inhibition at 15 µM was 100%.
On the same count and under the same terms, then `NS(=O)(=O)c1ccc(C2(O)C(=O)N(c3cccc4cc5c(cc34)OCO5)c3ccccc32)cc1` (stereo not shown) [NEM-37A, 4-(1-benzo[f][1,3]benzodioxol-5-yl-3-hydroxy-2-oxo-indolin-3-yl)benzenesulfonamide], with 100%.
Take `NS(=O)(=O)c1ccc(C2(O)C(=O)N(Cc3ccc(N4CCCC4)cc3)c3ccccc32)cc1` (stereo not shown) [NEM-24A, 4-[3-hydroxy-2-oxo-1-[(4-pyrrolidin-1-ylphenyl)methyl]indolin-3-yl]benzenesulfonamide]: the inhibition at 15 µM turned out to be 99%.
